Source: PubChem BioAssay (NCI)
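Dose response: 5 concentrations. Exposure: 48 h. Format: 96-well plates. Endpoint: linear interpolation; highest concentration if not reached. TGI marks complete inhibition of growth.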

Legend:
Experiment in all cases: DTP human tumour cell line panel, 48 h
MALME-3M melanoma = tested on: MALME-3M melanoma
SF-539 CNS = tested on: SF-539 CNS
OVCAR-4 ovarian = tested on: OVCAR-4 ovarian
HT29 colon = tested on: HT29 colon
LOX IMVI melanoma = tested on: LOX IMVI melanoma
HCC-2998 colon = tested on: HCC-2998 colon
OVCAR-5 ovarian = tested on: OVCAR-5 ovarian
COLO 205 colon = tested on: COLO 205 colon
NCI-H23 lung = tested on: NCI-H23 lung
UACC-62 melanoma = tested on: UACC-62 melanoma
SK-MEL-2 melanoma = tested on: SK-MEL-2 melanoma
EKVX NSCLC = tested on: EKVX NSCLC
HCT-15 colon = tested on: HCT-15 colon
SR leukemia = tested on: SR leukemia
SW-620 colon = tested on: SW-620 colon
SK-MEL-28 melanoma = tested on: SK-MEL-28 melanoma
SN12C renal = tested on: SN12C renal
NCI-H522 lung = tested on: NCI-H522 lung

SMILES: Cn1c(=O)cc2[nH]c3ccccc3n2c1=O
- TGI (MALME-3M melanoma): > 100 µM
- TGI (SF-539 CNS): 46.3 µM
- TGI (OVCAR-4 ovarian): > 100 µM
- TGI (HT29 colon): > 100 µM
- TGI (LOX IMVI melanoma): 38.4 µM
- TGI (HCC-2998 colon): > 100 µM
- TGI (OVCAR-5 ovarian): > 100 µM
- TGI (COLO 205 colon): 29.9 µM
- TGI (NCI-H23 lung): > 100 µM
- TGI (UACC-62 melanoma): > 100 µM
- TGI (SK-MEL-2 melanoma): > 100 µM
- TGI (EKVX NSCLC): > 100 µM
- TGI (HCT-15 colon): > 100 µM
- TGI (SR leukemia): > 100 µM
- TGI (SW-620 colon): 61.3 µM
- TGI (SK-MEL-28 melanoma): > 100 µM

SMILES: COC(=O)c1c(-c2cc(OC)c(OC)c(OC)c2)oc2ccccc2c1=O
- TGI (MALME-3M melanoma): > 100 µM
- TGI (SF-539 CNS): > 100 µM
- TGI (OVCAR-4 ovarian): > 100 µM
- TGI (HT29 colon): > 100 µM
- TGI (SN12C renal): > 100 µM
- TGI (LOX IMVI melanoma): > 100 µM
- TGI (HCC-2998 colon): > 100 µM
- TGI (OVCAR-5 ovarian): > 100 µM
- TGI (NCI-H522 lung): > 100 µM
- TGI (COLO 205 colon): > 100 µM
- TGI (NCI-H23 lung): > 100 µM
- TGI (UACC-62 melanoma): > 100 µM
- TGI (SK-MEL-2 melanoma): > 100 µM
- TGI (EKVX NSCLC): > 100 µM
- TGI (HCT-15 colon): > 100 µM
- TGI (SW-620 colon): > 100 µM

SMILES: COc1ccc(OC)c(/C=C2\CCc3ccccc3C2=O)c1
- TGI (MALME-3M melanoma): 18.5 µM
- TGI (SF-539 CNS): 9.95 µM
- TGI (OVCAR-4 ovarian): 22.9 µM
- TGI (HT29 colon): 16.7 µM
- TGI (SN12C renal): 25.5 µM
- TGI (LOX IMVI melanoma): 20.1 µM
- TGI (HCC-2998 colon): 9.35 µM
- TGI (OVCAR-5 ovarian): 25.5 µM
- TGI (NCI-H522 lung): 4.25 µM
- TGI (COLO 205 colon): 13.5 µM
- TGI (NCI-H23 lung): 17.3 µM
- TGI (UACC-62 melanoma): 5.39 µM
- TGI (SK-MEL-2 melanoma): 12.8 µM
- TGI (EKVX NSCLC): 22.7 µM
- TGI (HCT-15 colon): 29.3 µM
- TGI (SW-620 colon): 15.4 µM
- TGI (SK-MEL-28 melanoma): 28.1 µM

SMILES: Cn1c2ccccc2c2ccc3c(c21)C(=O)C(c1ccccc1)=CC3=O
- TGI (MALME-3M melanoma): 84.4 µM
- TGI (SF-539 CNS): 47.2 µM
- TGI (HT29 colon): > 100 µM
- TGI (SN12C renal): 52.3 µM
- TGI (HCC-2998 colon): 56.4 µM
- TGI (OVCAR-5 ovarian): > 100 µM
- TGI (NCI-H522 lung): 40.2 µM
- TGI (COLO 205 colon): > 100 µM
- TGI (NCI-H23 lung): > 100 µM
- TGI (SK-MEL-2 melanoma): 45.3 µM
- TGI (EKVX NSCLC): 75.2 µM
- TGI (HCT-15 colon): 22.2 µM
- TGI (SK-MEL-28 melanoma): 51 µM

SMILES: COc1ccc(OC)c(NC(=O)C(=O)CC(=O)c2sc(-n3nc(-c4ccccc4)cc3-c3ccccc3)nc2C)c1
- TGI (MALME-3M melanoma): > 100 µM
- TGI (SF-539 CNS): > 100 µM
- TGI (OVCAR-4 ovarian): > 100 µM
- TGI (HT29 colon): > 100 µM
- TGI (SN12C renal): > 100 µM
- TGI (LOX IMVI melanoma): > 100 µM
- TGI (HCC-2998 colon): > 100 µM
- TGI (OVCAR-5 ovarian): > 100 µM
- TGI (NCI-H522 lung): > 100 µM
- TGI (COLO 205 colon): > 100 µM
- TGI (NCI-H23 lung): > 100 µM
- TGI (UACC-62 melanoma): > 100 µM
- TGI (SK-MEL-2 melanoma): > 100 µM
- TGI (HCT-15 colon): > 100 µM
- TGI (SR leukemia): > 100 µM
- TGI (SW-620 colon): > 100 µM

SMILES: COC(=O)CC(C(C(=O)OC)C(=O)OC)N1C(=O)OC(c2ccccc2)C1c1ccccc1 (centres undefined)
- TGI (MALME-3M melanoma): > 100 µM
- TGI (SF-539 CNS): > 100 µM
- TGI (OVCAR-4 ovarian): > 100 µM
- TGI (HT29 colon): > 100 µM
- TGI (SN12C renal): > 100 µM
- TGI (LOX IMVI melanoma): > 100 µM
- TGI (HCC-2998 colon): 93.1 µM
- TGI (OVCAR-5 ovarian): > 100 µM
- TGI (NCI-H522 lung): > 100 µM
- TGI (COLO 205 colon): > 100 µM
- TGI (NCI-H23 lung): > 100 µM
- TGI (UACC-62 melanoma): > 100 µM
- TGI (SK-MEL-2 melanoma): > 100 µM
- TGI (EKVX NSCLC): > 100 µM
- TGI (HCT-15 colon): > 100 µM
- TGI (SW-620 colon): 74.3 µM
- TGI (SK-MEL-28 melanoma): > 100 µM

SMILES: COc1cc([C@@H]2c3cc4c(cc3[C@@H](OC(=O)c3cccc(N)c3)C3COC(=O)[C@@H]32)OCO4)cc(OC)c1O (some centres undefined)
- TGI (MALME-3M melanoma): > 56.3 µM
- TGI (SF-539 CNS): 13.8 µM
- TGI (OVCAR-4 ovarian): > 100 µM
- TGI (HT29 colon): 24.5 µM
- TGI (SN12C renal): 31.3 µM
- TGI (LOX IMVI melanoma): 33.8 µM
- TGI (HCC-2998 colon): 28.7 µM
- TGI (OVCAR-5 ovarian): 60.1 µM
- TGI (COLO 205 colon): > 45.6 µM
- TGI (NCI-H23 lung): 6.2 µM
- TGI (UACC-62 melanoma): 24.1 µM
- TGI (SK-MEL-2 melanoma): 73.3 µM
- TGI (EKVX NSCLC): > 100 µM
- TGI (HCT-15 colon): > 52.6 µM
- TGI (SR leukemia): 17.9 µM
- TGI (SW-620 colon): > 100 µM
- TGI (SK-MEL-28 melanoma): > 100 µM

SMILES: Cc1ccc(/C=C/C(=O)c2sc(-n3nc(-c4ccccc4)cc3-c3ccccc3)nc2C)cc1
- TGI (MALME-3M melanoma): > 100 µM
- TGI (SF-539 CNS): > 100 µM
- TGI (HT29 colon): > 100 µM
- TGI (SN12C renal): > 100 µM
- TGI (LOX IMVI melanoma): > 100 µM
- TGI (HCC-2998 colon): > 100 µM
- TGI (OVCAR-5 ovarian): > 100 µM
- TGI (NCI-H522 lung): > 100 µM
- TGI (COLO 205 colon): > 100 µM
- TGI (NCI-H23 lung): > 100 µM
- TGI (UACC-62 melanoma): > 100 µM
- TGI (SK-MEL-2 melanoma): > 100 µM
- TGI (EKVX NSCLC): > 100 µM
- TGI (HCT-15 colon): > 100 µM
- TGI (SW-620 colon): > 100 µM
- TGI (SK-MEL-28 melanoma): > 100 µM

SMILES: COc1c(I)c(OC)c2c(c1I)O[C@@H]1OCC[C@H]21
- TGI (MALME-3M melanoma): 73.4 µM
- TGI (SF-539 CNS): > 100 µM
- TGI (OVCAR-4 ovarian): 84.6 µM
- TGI (HT29 colon): > 100 µM
- TGI (SN12C renal): > 100 µM
- TGI (LOX IMVI melanoma): > 100 µM
- TGI (HCC-2998 colon): 78.6 µM
- TGI (OVCAR-5 ovarian): > 100 µM
- TGI (COLO 205 colon): 57.8 µM
- TGI (NCI-H23 lung): > 100 µM
- TGI (UACC-62 melanoma): > 100 µM
- TGI (SK-MEL-2 melanoma): 41.2 µM
- TGI (EKVX NSCLC): > 100 µM
- TGI (HCT-15 colon): > 100 µM
- TGI (SR leukemia): 45.2 µM
- TGI (SW-620 colon): > 100 µM
- TGI (SK-MEL-28 melanoma): 97 µM

SMILES: Cc1c2ccncc2c(C)c2c1[nH]c1ccc(Oc3ccccc3)cc12
- TGI (MALME-3M melanoma): 3.58 µM
- TGI (SF-539 CNS): 3.13 µM
- TGI (OVCAR-4 ovarian): 10.5 µM
- TGI (HT29 colon): 3.84 µM
- TGI (SN12C renal): 4.69 µM
- TGI (LOX IMVI melanoma): 4 µM
- TGI (HCC-2998 colon): 3.18 µM
- TGI (OVCAR-5 ovarian): 3.94 µM
- TGI (NCI-H23 lung): > 53.1 µM
- TGI (UACC-62 melanoma): 3.16 µM
- TGI (EKVX NSCLC): > 100 µM
- TGI (SR leukemia): 12.3 µM
- TGI (SW-620 colon): > 100 µM
- TGI (SK-MEL-28 melanoma): 9.67 µM

SMILES: CC1(C)c2ccccc2N2O[C@@H]3C(=O)N(c4ccccc4)C(=O)[C@@H]3C21c1ccccc1 (some centres undefined)
- TGI (MALME-3M melanoma): > 100 µM
- TGI (SF-539 CNS): > 100 µM
- TGI (HT29 colon): > 100 µM
- TGI (SN12C renal): > 100 µM
- TGI (LOX IMVI melanoma): > 100 µM
- TGI (HCC-2998 colon): > 100 µM
- TGI (NCI-H522 lung): > 100 µM
- TGI (COLO 205 colon): > 100 µM
- TGI (NCI-H23 lung): > 100 µM
- TGI (UACC-62 melanoma): > 100 µM
- TGI (SK-MEL-2 melanoma): > 100 µM
- TGI (EKVX NSCLC): > 100 µM
- TGI (HCT-15 colon): > 100 µM
- TGI (SW-620 colon): > 100 µM
- TGI (SK-MEL-28 melanoma): > 100 µM

SMILES: CC(C)OC(=O)[C@H]1ON2O[C@H](O[C@@H]3CCCC[C@H]3c3ccccc3)C([Si](C)(C)c3ccccc3)[C@H]3OC(=O)[C@@H]1C32 (some centres undefined)
- TGI (SF-539 CNS): > 100 µM
- TGI (HT29 colon): > 100 µM
- TGI (SN12C renal): > 100 µM
- TGI (LOX IMVI melanoma): > 100 µM
- TGI (HCC-2998 colon): > 100 µM
- TGI (NCI-H522 lung): > 100 µM
- TGI (COLO 205 colon): > 100 µM
- TGI (NCI-H23 lung): > 100 µM
- TGI (UACC-62 melanoma): > 100 µM
- TGI (SK-MEL-2 melanoma): > 100 µM
- TGI (EKVX NSCLC): > 100 µM
- TGI (HCT-15 colon): > 100 µM
- TGI (SR leukemia): 54.2 µM
- TGI (SW-620 colon): > 100 µM
- TGI (SK-MEL-28 melanoma): > 100 µM
